These molecules were tested against human APJ receptor (Homo sapiens (Human), UniProt P35414) (assay: Intracellular cAMP accumulation assay (APJ hcAMP, HTRF)). Conditions: HEK293 cells stably expressing human APJ receptor; inhibition of forskolin-mediated cAMP production; read-out: Human APJ cAMP EC50 Potency range.
human APJ receptor, sequence (P35414 whole entry): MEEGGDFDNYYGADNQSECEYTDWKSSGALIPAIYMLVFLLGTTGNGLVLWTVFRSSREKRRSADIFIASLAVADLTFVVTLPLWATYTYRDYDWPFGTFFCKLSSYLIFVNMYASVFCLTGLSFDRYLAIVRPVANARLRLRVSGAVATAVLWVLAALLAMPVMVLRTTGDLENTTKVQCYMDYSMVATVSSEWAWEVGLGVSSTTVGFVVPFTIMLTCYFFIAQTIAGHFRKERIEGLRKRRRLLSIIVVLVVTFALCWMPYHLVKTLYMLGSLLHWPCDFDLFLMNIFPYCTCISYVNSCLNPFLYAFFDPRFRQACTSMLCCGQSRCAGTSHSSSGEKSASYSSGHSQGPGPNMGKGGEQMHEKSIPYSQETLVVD
Assay type: cell-based
How it was run: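 HEK293 cells stably expressing human APJ, 5,000 per well, exposed to compound with […] IBMX and 2 μM forskolin for 30 minutes at room temperature. cAMP measured by HTRF after lysis and 60 min detection incubation. EC50 from sigmoidal variable-slope fits of inhibition of forskolin-induced cAMP, quantified against a cAMP standard curve.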
For `CCCCc1nc(O)c(-c2nnc(CNC)o2)c(O)c1-c1c(OC)cccc1OC` [Example 154, 6-butyl-5-(2,6-dimethoxyphenyl)-3-{5-[(methylamino)methyl]-1,3,4-oxadiazol-2-yl}pyridine-2,4-diol], the EC50 was 10 to 100 nM.
With `CCCCc1nc(O)c(-c2nnc(CN(C)C(=O)Cc3ccccc3)o2)c(O)c1-c1c(OC)cccc1OC` [Example 155, N-({5-[6-butyl-5-(2,6-dimethoxyphenyl)-2,4-dihydroxypyridin-3-yl]-1,3,4-oxadiazol-2-yl}methyl)-N-methyl-2-phenylacetamide] the EC50 was 0.01 to 10 nM.

Same assay, conditions: HEK293 cells stably expressing human APJ receptor; inhibition of forskolin-mediated cAMP production; read-out: hAPJ cAMP EC50 Potency range
Work on `CCCCc1nc(O)c(-c2nnc(Cc3ccc(F)c(F)c3)o2)c(O)c1-c1cccc(C(=O)NC(C)C)c1` [Example 147, 3-(2-butyl-5-{5-[(3,4-difluorophenyl)methyl]-1,3,4-oxadiazol-2-yl}-4,6-dihydroxypyridin-3-yl)-N-(propan-2-yl)benzamide] yielded an EC50 of 10 to 100 nM.
For `CCCCc1[nH]c(=O)c(-c2nnc(Cc3csc(C)n3)o2)c(O)c1-c1cccc(C(C)C)c1` [Example 148, 6-butyl-4-hydroxy-3-{5-[(2-methyl-1,3-thiazol-4-yl)methyl]-1,3,4-oxadiazol-2-yl}-5-[3-(propan-2-yl)phenyl]-1,2-dihydropyridin-2-one], the EC50 was 0.01 to 10 nM.
In the case of `CCCCc1[nH]c(=O)c(-c2nnc(Cc3csc(C)n3)o2)c(O)c1-c1cccc(C(=O)NC(C)C)c1` [Example 149, 3-(2-butyl-4-hydroxy-5-{5-[(2-methyl-1,3-thiazol-4-yl)methyl]-1,3,4-oxadiazol-2-yl}-6-oxo-1,6-dihydropyridin-3-yl)-N-(propan-2-yl)benzamide], the EC50 is reported as 0.01 to 10 nM.
Work on `CCCCc1[nH]c(=O)c(-c2nnc(Cc3csc(C)n3)o2)c(O)c1-c1cccc(C2CC2)c1` [Example 150, 6-butyl-5-(3-cyclopropylphenyl)-4-hydroxy-3-{5-[(2-methyl-1,3-thiazol-4-yl)methyl]-1,3,4-oxadiazol-2-yl}-1,2-dihydropyridin-2-one] yielded an EC50 of 0.01 to 10 nM.
`CCCCc1[nH]c(=O)c(-c2nnc(Cc3csc(C)n3)o2)c(O)c1-c1cccc(OC)c1` [Example 151, 6-butyl-4-hydroxy-5-(3-methoxyphenyl)-3-{5-[(2-methyl-1,3-thiazol-4-yl)methyl]-1,3,4-oxadiazol-2-yl}-1,2-dihydropyridin-2-one] gave an EC50 of 0.01 to 10 nM.
`CCCCc1[nH]c(=O)c(-c2nnc(Cc3csc(C)n3)o2)c(O)c1-c1cccc(CO)c1` [Example 152, 6-butyl-4-hydroxy-5-[3-(hydroxymethyl)phenyl]-3-{5-[(2-methyl-1,3-thiazol-4-yl)methyl]-1,3,4-oxadiazol-2-yl}-1,2-dihydropyridin-2-one] gave an EC50 of 10 to 100 nM.
`CCCCc1[nH]c(=O)c(-c2nnc(Cc3csc(C)n3)o2)c(O)c1-c1cccc(N2CCCC2)c1` [Example 153, 6-butyl-4-hydroxy-3-{5-[(2-methyl-1,3-thiazol-4-yl)methyl]-1,3,4-oxadiazol-2-yl}-5-[3-(pyrrolidin-1-yl)phenyl]-1,2-dihydropyridin-2-one] gave an EC50 of 10 to 100 nM.
In the case of `CCCCc1nc(O)c(-c2nnc(CN(C)C(=O)c3cccc(Cl)c3)o2)c(O)c1-c1c(OC)cccc1OC` [Example 156, N-({5-[6-butyl-5-(2,6-dimethoxyphenyl)-2,4-dihydroxypyridin-3-yl]-1,3,4-oxadiazol-2-yl}methyl)-3-chloro-N-methylbenzamide], the EC50 is reported as 0.01 to 10 nM.
Molecule `CCCCc1nc(O)c(-c2nnc(CN(C)C(=O)c3ccccn3)o2)c(O)c1-c1c(OC)cccc1OC` [Example 157, N-({5-[6-butyl-5-(2,6-dimethoxyphenyl)-2,4-dihydroxypyridin-3-yl]-1,3,4-oxadiazol-2-yl}methyl)-N-methylpyridine-2-carboxamide] has an EC50 of 0.01 to 10 nM.
With `CCCCc1nc(O)c(-c2nnc(CNC(=O)COC)o2)c(O)c1-c1c(OC)cccc1OC` [Example 158, N-({5-[6-butyl-5-(2,6-dimethoxyphenyl)-2,4-dihydroxypyridin-3-yl]-1,3,4-oxadiazol-2-yl}methyl)-2-methoxyacetamide] the EC50 was 0.01 to 10 nM.

Reference: patent publication US10336739B2, “4-hydroxy-3-(heteroaryl)pyridine-2-one APJ agonists” (BRISTOL-MYERS SQUIBB COMPANY, priority 2015, dated 2019)
